In patent US10597391B2, “Urea-containing isoxazole derivatives as FXR agonists and methods of use thereof” (Enanta Pharmaceuticals, Inc., priority 2016, dated 2020) one finds Emax and EC50 data, which are given here for 40 compounds.

Where only a bound is given, the exact number is not on record here.

This assay deals with T1, human FXR (NR1H4) (Homo sapiens, UniProt Q96RI1).
T1 sequence (Q96RI1 1-486): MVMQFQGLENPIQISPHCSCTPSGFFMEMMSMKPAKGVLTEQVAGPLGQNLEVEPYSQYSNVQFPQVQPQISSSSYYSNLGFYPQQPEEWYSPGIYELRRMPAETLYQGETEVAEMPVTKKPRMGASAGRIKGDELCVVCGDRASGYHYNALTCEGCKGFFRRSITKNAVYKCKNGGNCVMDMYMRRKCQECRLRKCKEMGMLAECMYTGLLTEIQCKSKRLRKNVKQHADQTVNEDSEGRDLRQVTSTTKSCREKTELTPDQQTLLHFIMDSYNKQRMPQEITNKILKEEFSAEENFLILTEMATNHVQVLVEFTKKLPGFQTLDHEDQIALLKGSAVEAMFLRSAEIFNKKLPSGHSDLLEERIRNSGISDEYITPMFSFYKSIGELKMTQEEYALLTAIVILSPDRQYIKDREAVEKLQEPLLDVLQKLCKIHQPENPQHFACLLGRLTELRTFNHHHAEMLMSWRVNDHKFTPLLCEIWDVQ
The assay can be described thus: Human FXR (NR1H4) Assay: Gal4 promoter driven luciferase reporter transactivation in CHO cells (Indigo Bioscience kit IB00601). It counts as cell-based. The note with it: for Emax: CHO, efficacy normalized to CDCA set as 100%, read-out: Efficacy (%); for EC50: potency range, Human FXR (NR1H4) reporter assay in CHO cells, read-out: EC50. An excerpt: Human FXR (NR1H4) Assay Determination of a ligand mediated Gal4 promoter driven transactivation to quantify ligand binding mediated activation of FXR. FXR Reporter Assay kit purchased from Indigo Bioscience (Catalogue number: IB00601) to determine the potency and efficacy of compounds that can induce FXR activation. The principle application of this reporter assay system is to quantify functional activity of human FXR. The assay utilizes non-human mammalian cells, CHO (Chinese hamster ovary) cells engineered to express human NR1H4 protein (referred to as FXR). Reporter cells also incorporate the cDNA encoding beetle luciferase which catalyzes the substrates and yields photon emission. Luminescence intensity of the reaction is quantified using a plate-reading luminometer, Envision. Reporter Cells include the luciferase reporter gene functionally linked to an FXR responsive promoter. Thus, quantifying changes in luciferase expression in the treated reporter cells provides a sensitive surrogate measure of the changes in FXR activity. […] The assay is according to the manufacturer's instructions. […] Retrieve Reporter Cells from −80° C. storage. Perform a rapid thaw of the frozen cells by transferring a 10 ml volume of 37° C. cell recovery medium into the tube of frozen cells. […] Retrieve the tube of Reporter Cell Suspension from the water bath. […] Dispense 90 μl of cell suspension into each well of the 96-well Assay Plate. Transfer the plate into 37° C. incubator, allowing the cells adherent to the bottom of the well. Dilute compounds in Dilution Plate (DP), and administrate to cells at Assay Plate (AP). […] Cells were incubated for additional 22 hours before luciferase activities were measured. Thirty minutes before intending to quantify FXR activity, remove Detection Substrate and Detection Buffer from the refrigerator and place them in a low-light area so that they may equilibrate to room temperature. Remove the plate's lid and discard all media contents by ejecting it into an appropriate waste container. Gently tap the inverted plate onto a clean absorbent paper towel to remove residual droplets. Cells will remain tightly adhered to well bottoms. Add 100 μl of luciferase detection reagent to each well of the assay plate. Allow the assay plate to rest at room temperature for at least 5 minutes following the addition of LDR. Set the instrument (Envision) to perform a single 5 second “plate shake” prior to reading the first assay well. Read time may be 0.5 second (500 mSec) per well.
On the technique in general: In a reporter assay the amount or activity of a reporter protein is the signal.

Regarding `CCOc1cc(C(=O)OC)ccc1NC(=O)N1C2CCC1CC(OCc1c(-c3c(Cl)cccc3Cl)noc1C1CC1)C2` (stereo not shown) [Example 718], the Emax came to 119% and the EC50 (commonly the concentration that produces a half-maximal response) lay in the range of 10 to 100 nM.

With `CCOC(=O)c1cccc(NC(=O)N2C3CCC2CC(OCc2c(-c4ccccc4OC(F)(F)F)noc2C2CC2)C3)n1` (stereo not shown) [Example 766], the Emax was found to be 192% and the EC50 was above 1000 nM.

With `O=C(O)c1ccc(NC(=O)N2C3CCC2CC(OCc2c(-c4ccccc4OC(F)(F)F)noc2C2CC2)C3)c(F)c1` (stereo not shown) [Example 239], the EC50 is 10 to 100 nM.

As for `O=C(Nc1cccc(-c2nccs2)c1)N1C2CCC1CC(OCc1c(-c3c(Cl)cccc3Cl)noc1C1CC1)C2` (stereo not shown) [Example 737], the Emax was 179% and the EC50 was below 10 nM.

On to `O=C(Nc1ccc(F)c(F)c1)N1C2CCC1CC(OCc1c(-c3c(Cl)cccc3Cl)noc1C1CC1)C2` (stereo not shown) [Example 699], for which the Emax worked out at 232% and the EC50 lay within 10 to 100 nM.

As for `O=C(Nc1cc(F)c(F)c(F)c1)N1C2CCC1CC(OCc1c(-c3c(Cl)cccc3Cl)noc1C1CC1)C2` (stereo not shown) [Example 10], the EC50 was in the range of 10 to 100 nM.

For `CCOC(=O)c1ccc(NC(=O)N2C3CCC2CC(NCc2c(-c4c(Cl)cccc4Cl)noc2C2CC2)C3)c(OCC)c1` (stereo not shown) [Example 829], the Emax was found to be 57% and the EC50 fell in the range of 10 to 100 nM.

As to `COc1ccc(C(=O)O)cc1NC(=O)N1C2CCC1CC(OCc1c(-c3ccccc3OC(F)(F)F)noc1C1CC1)C2` (stereo not shown) [Example 750], the Emax was 76% and the EC50 is 100 to 1000 nM.

In the case of `O=C(O)c1ccc(NC(=O)N2C3CCC2CC(OCc2c(-c4ccccc4OC(F)(F)F)noc2C2CC2)C3)nc1` (stereo not shown) [Example 769], the Emax came out at 132% and the EC50 is 100 to 1000 nM.

For `COC(=O)c1ccc(NC(=O)N2C3CCC2CC(OCc2c(-c4c(Cl)cccc4Cl)noc2C2CC2)C3)cc1-c1cnn(C)c1` (stereo not shown) [Example 774], the Emax turned out to be 102% and the EC50 is below 10 nM.

Turning to `O=C(O)c1ccc(NC(=O)N2C3CCC2CC(OCc2c(-c4ccccc4C(F)(F)F)noc2C2CC2)C3)cc1-c1ccccc1` (stereo not shown) [Example 815], the Emax was 36% and the EC50 lay in the range of 10 to 100 nM.

Regarding `CCOC(=O)c1ccccc1NC(=O)N1C2CCC1CC(OCc1c(-c3ccccc3OC(F)(F)F)noc1C1CC1)C2` (stereo not shown) [Example 743], the Emax is 140% and the EC50 was above 1000 nM.

For the compound `CCOc1cc(C(=O)O)ccc1NC(=O)N1C2CCC1CC(OCc1c(-c3ccccc3C(F)(F)F)noc1C1CC1)C2` (stereo not shown) [Example 812], the Emax amounted to 102% and the EC50 lay in the range of 10 to 100 nM.

Turning to `O=C(NCc1cccc(C(F)(F)F)c1)N1C2CCC1CC(OCc1c(-c3c(Cl)cccc3Cl)noc1C1CC1)C2` (stereo not shown) [Example 734], the Emax was 172% and the EC50 fell in the range of 10 to 100 nM.

Regarding `O=C(NC1CCCCC1)N1C2CCC1CC(OCc1c(-c3c(Cl)cccc3Cl)noc1C1CC1)C2` (stereo not shown) [Example 30], the EC50 fell in the range of 10 to 100 nM.

As to `CN(C)S(=O)(=O)c1cccc(NC(=O)N2C3CCC2CC(OCc2c(-c4c(Cl)cccc4Cl)noc2C2CC2)C3)c1` (stereo not shown) [Example 25], the EC50 was below 10 nM.

Consider `N#Cc1ccc(NC(=O)N2C3CCC2CC(OCc2c(-c4c(Cl)cccc4Cl)noc2C2CC2)C3)cc1` (stereo not shown) [Example 9], for which the EC50 lay in the range of 10 to 100 nM.

Consider `O=C(O)c1ccc(NC(=O)N2C3CCC2CC(OCc2c(-c4c(Cl)cccc4Cl)noc2C2CC2)C3)cc1` (stereo not shown) [Example 184], for which the EC50 is below 10 nM.

In the case of `COC(=O)c1cccc(OC)c1NC(=O)N1C2CCC1CC(OCc1c(-c3ccccc3OC(F)(F)F)noc1C1CC1)C2` (stereo not shown) [Example 751], the Emax stood at 26% and the EC50 was in the range of 100 to 1000 nM.

Take `CN(C)S(=O)(=O)NC(=O)c1ccc(NC(=O)N2C3CCC2CC(OCc2c(-c4c(Cl)cccc4Cl)noc2C2CC2)C3)cc1` (stereo not shown) [Example 695]: the Emax was found to be 140% and the EC50 was in the range of 10 to 100 nM.

For `O=C(O)CNC(=O)c1ccc(NC(=O)N2C3CCC2CC(OCc2c(-c4c(Cl)cccc4Cl)noc2C2CC2)C3)c(F)c1` (stereo not shown) [Example 783], the Emax was 0% and the EC50 lay in the range of 100 to 1000 nM.

`O=C(NS(=O)(=O)C1CC1)c1ccc(NC(=O)N2C3CCC2CC(OCc2c(-c4ccccc4OC(F)(F)F)noc2C2CC2)C3)cc1` (stereo not shown) [Example 755]: the Emax is 220% and the EC50 lay in the range of 100 to 1000 nM.

Turning to `O=C(Nc1cc(F)cc(F)c1)N1C2CCC1CC(OCc1c(-c3c(Cl)cccc3Cl)noc1C1CC1)C2` (stereo not shown) [Example 700], the Emax turned out to be 292% and the EC50 was below 10 nM.

Consider `CCOC(=O)c1ccc(NC(=O)N2C3CCC2CC(NCc2c(-c4c(Cl)cccc4Cl)noc2C2CC2)C3)cc1` (stereo not shown) [Example 825], for which the Emax stood at 104% and the EC50 fell in the range of 10 to 100 nM.

On to `CCOC(=O)c1cccc(NC(=O)N2C3CCC2CC(OCc2c(-c4ccccc4OC(F)(F)F)noc2C2CC2)C3)c1` (stereo not shown) [Example 227], for which the EC50 fell in the range of 10 to 100 nM.

Consider `O=C(O)c1ccc(NC(=O)N2C3CCC2CC(OCc2c(-c4c(Cl)cccc4Cl)noc2C2CC2)C3)c(C2CC2)c1` (stereo not shown) [Example 801], for which the Emax worked out at 70% and the EC50 lay in the range of 10 to 100 nM.

On to `COC(=O)c1ccc(NC(=O)N2C3CCC2CC(OCc2c(-c4c(Cl)cccc4Cl)noc2C2CC2)C3)cn1` (stereo not shown) [Example 212], for which the EC50 is below 10 nM.

On to `O=C(O)c1ccc(NC(=O)N2C3CCC2CC(OCc2c(-c4c(Cl)cccc4Cl)noc2C2CC2)C3)cn1` (stereo not shown) [Example 213], for which the EC50 is 100 to 1000 nM.

For the compound `O=C(O)c1ccc2nc(NC(=O)N3C4CCC3CC(OCc3c(-c5c(Cl)cccc5Cl)noc3C3CC3)C4)sc2c1` (stereo not shown) [Example 805], the Emax is 104% and the EC50 lay in the range of 10 to 100 nM.

On to `O=C(Nc1ccccc1C(F)(F)F)N1C2CCC1CC(OCc1c(-c3c(Cl)cccc3Cl)noc1C1CC1)C2` (stereo not shown) [Example 6], for which the EC50 lay in the range of 100 to 1000 nM.

For `COC(=O)CNC(=O)c1ccc(NC(=O)N2C3CCC2CC(OCc2c(-c4c(Cl)cccc4Cl)noc2C2CC2)C3)c(F)c1` (stereo not shown) [Example 781], the Emax was found to be 100% and the EC50 lay within 10 to 100 nM.

`COC(=O)c1ccc(NC(=O)N2C3CCC2CC(OCc2c(-c4ccccc4OC(F)(F)F)noc2C2CC2)C3)cc1OC(F)(F)F` (stereo not shown) [Example 821]: the Emax came out at 75% and the EC50 was 10 to 100 nM.

Take `COC(=O)c1ccc(OC)c(NC(=O)N2C3CCC2CC(OCc2c(-c4ccccc4OC(F)(F)F)noc2C2CC2)C3)c1` (stereo not shown) [Example 749]: the Emax is 104% and the EC50 is 10 to 100 nM.

Take `O=C(NCc1ccccc1-c1ccccc1)N1C2CCC1CC(OCc1c(-c3c(Cl)cccc3Cl)noc1C1CC1)C2` (stereo not shown) [Example 740]: the Emax amounted to 90% and the EC50 is below 10 nM.

Consider `O=C(NCc1ccc(F)c(F)c1)N1C2CCC1CC(OCc1c(-c3c(Cl)cccc3Cl)noc1C1CC1)C2` (stereo not shown) [Example 733], for which the Emax turned out to be 175% and the EC50 was below 10 nM.

With `O=C(Nc1cccc(-c2ccncc2)c1)N1C2CCC1CC(OCc1c(-c3c(Cl)cccc3Cl)noc1C1CC1)C2` (stereo not shown) [Example 836], the Emax turned out to be 135% and the EC50 is below 10 nM.

For `COc1ccc(-c2cc(NC(=O)N3C4CCC3CC(OCc3c(-c5c(Cl)cccc5Cl)noc3C3CC3)C4)ccc2C(=O)O)cn1` (stereo not shown) [Example 787], the Emax was determined as 97% and the EC50 is below 10 nM.

As for `O=C(NCc1ccccc1)N1C2CCC1CC(OCc1c(-c3c(Cl)cccc3Cl)noc1C1CC1)C2` (stereo not shown) [Example 730], the Emax was 252% and the EC50 is below 10 nM.

Consider `CC1(S(=O)(=O)NC(=O)c2cnc3ccc(NC(=O)N4C5CCC4CC(OCc4c(-c6c(Cl)cccc6Cl)noc4C4CC4)C5)cc3c2)CC1` (stereo not shown) [Example 791], for which the Emax amounted to 11% and the EC50 was 100 to 1000 nM.

With `N#Cc1cc(F)cc(NC(=O)N2C3CCC2CC(OCc2c(-c4c(Cl)cccc4Cl)noc2C2CC2)C3)c1` (stereo not shown) [Example 704], the Emax was determined as 157% and the EC50 is below 10 nM.
